The values that follow are results of earlier work, collected in patent US20260355230A1, “SODIUM BICARBONATE PRODUCT FOR CHILDBIRTH LABOR” (LAMINARIA GROUP AB, priority 2023, published 2026).

For data set [1] the following is noted: large amounts, particularly as an aqueous solution.
The conditions of data set [2]: 4.26 g sodium bicarbonate dissolved in water, oral.

In the case of `O=C([O-])O.[Na+]` [sodium bicarbonate], the gastrointestinal side-effect result in data set [1] is “acute gastrointestinal (GI) distress”. Moreover, in data set [2], the “pH in maternal blood” value is “increased significantly”. In data set [2] (vs untreated group), the fetal outcome was “a difference in fetal outcome was shown between the two groups” and the “frequency of spontaneous vaginal deliveries” value is “substantially higher”. Further, in data set [2] (vs untreated group, AFL >10.1 mmol/L), the AFL levels entry is “fell significantly”.
